Data published in patent US20140329797A1, “SUBSTITUTED OXADIAZOLYL PYRIDINONES AND OXADIAZOLYL PYRIDAZINONES AS HIF INHIBITORS” (Bayer Intellectual Property GmbH, priority 2011, published 2014).

System: HCT 116 cells transfected with a luciferase reporter under the control of an HIF-responsive sequence
Assay: HIF-luciferase assay
Type: cell-based
Conditions: Homo sapiens; HCT 116 HIF-luciferase reporter cells, hypoxia chamber (1% O2), 24 h; in some cases means of up to four individual determinations
Description: B-1. HIF-Luciferase Assay
HCT 116 cells were transfected in a stable manner with a plasmid which contained a luciferase reporter under the control of an HIF-responsive sequence. These cells were sown in microtitre plates [20000 cells/cavity in RPMI 1640 medium with 10% foetal calf serum (FCS) and 100 μg/ml of hygromycin]. Incubation was carried out overnight under standard conditions (5% CO2, 21% O2, 37° C., moistened). The following morning the cells were incubated with various concentrations of the test substances (0-10 μmol/l) in a hypoxia chamber (1% O2). After 24 h, Bright Glo reagent (Promega, Wisconsin, USA) was added in accordance with the manufacturer's instructions, and after 5 min the luminescence was measured. Cells which were incubated under normoxia served as background controls.

Q: `Cc1ccc(Cn2cc(-c3nc(-c4ccc(OC(F)(F)F)cc4)no3)ccc2=O)cc1` [Example 1, 1-(4-Methylbenzyl)-5-{3-[4-(trifluoromethoxy)phenyl]-1,2,4-oxadiazol-5-yl}pyridin-2(1H)-one] was tested. Which IC50 did it give?
A: 45 nM

Q: Which IC50 does the source give for `Cc1ccc(Cn2cc(-c3nc(-c4ccc(C(C)(C)C(F)(F)F)cc4)no3)ccc2=O)cc1` [Example 2, 1-(4-Methylbenzyl)-5-{3-[4-(1,1,1-trifluoro-2-methylpropan-2-yl)phenyl]-1,2,4-oxadiazol-5-yl}pyridin-2(1H)-one] here?
A: 40 nM

Q: For `CC(C)(c1ccc(-c2noc(-c3ccc(=O)n(Cc4ccc(Cl)cc4)c3)n2)cc1)C(F)(F)F` [Example 4, 1-(4-Chlorobenzyl)-5-{3-[4-(1,1,1-trifluoro-2-methylpropan-2-yl)phenyl]-1,2,4-oxadiazol-5-yl}pyridin-2(1H)-one], which IC50 is on record?
A: 50 nM

Q: Which IC50 does the source give for `Nc1ccc(Cn2cc(-c3nc(-c4ccc(OC(F)(F)F)cc4)no3)ccc2=O)cc1` [Example 7, 1-(4-Aminobenzyl)-5-{3-[4-(trifluoromethoxy)phenyl]-1,2,4-oxadiazol-5-yl}pyridin-2(1H)-one] here?
A: 20 nM

Q: How did the IC50 turn out when `N#CC1CCN(c2cccc(Cn3cc(-c4nc(-c5ccc(OC(F)(F)F)cc5)no4)ccc3=O)c2)CC1` [Example 9, 1-(3-{[2-oxo-5-{3-[4-(trifluoromethoxy)phenyl]-1,2,4-oxadiazol-5-yl}pyridin-1(2H)-yl]methyl}phenyl)piperidine-4-carbonitrile] was run?
A: 1.5 nM

Q: Which IC50 does the source give for `N#CC1CCN(c2cccc(Cn3cc(-c4nc(-c5ccc(SC(F)(F)F)cc5)no4)ccc3=O)c2)CC1` [Example 10, 1-(3-{[2-oxo-5-(3-{4-[(trifluoromethyl)sulphanyl]phenyl}-1,2,4-oxadiazol-5-yl)pyridin-1(2H)-yl]methyl}phenyl)piperidine-4-carbonitrile] here?
A: 1 nM

Q: How did the IC50 turn out when `CC(C)(c1ccc(-c2noc(-c3ccc(=O)n(Cc4cccc(N5CCC(C#N)CC5)c4)c3)n2)cc1)C(F)(F)F` [Example 11, 1-(3-{[2-oxo-5-{3-[4-(1,1,1-trifluoro-2-methylpropan-2-yl)phenyl]-1,2,4-oxadiazol-5-yl}pyridin-1(2H)-yl]methyl}phenyl)piperidine-4-carbonitrile] was run?
A: 2 nM

Q: How did the IC50 turn out when `N#CC1CCN(c2cccc(Cn3cc(-c4nc(-c5ccc(C6(C(F)(F)F)CC6)cc5)no4)ccc3=O)c2)CC1` [Example 12, 1-(3-{[2-oxo-5-(3-{4-[1-(trifluoromethyl)cyclopropyl]phenyl}-1,2,4-oxadiazol-5-yl)pyridin-1(2H)-yl]methyl}phenyl)piperidine-4-carbonitrile] was run?
A: 1.5 nM

Q: `O=c1ccc(-c2nc(-c3ccc(OC(F)(F)F)cc3)no2)cn1Cc1cccc(N2CC(O)C2)c1` [Example 13, 1-[3-(3-Hydroxyazetidin-1-yl)benzyl]-5-{3-[4-(trifluoromethoxy)phenyl]-1,2,4-oxadiazol-5-yl}pyridin-2(1H)-one] was tested. Which IC50 did it give?
A: 2 nM

Q: With `O=c1ccc(-c2nc(-c3ccc(SC(F)(F)F)cc3)no2)cn1Cc1cccc(N2CC(O)C2)c1` [Example 14, 1-[3-(3-Hydroxyazetidin-1-yl)benzyl]-5-(3-{4-[(trifluoromethyl)sulphanyl]phenyl}-1,2,4-oxadiazol-5-yl)pyridin-2(1H)-one] as the molecule, how does the IC50 read?
A: 2 nM

Q: Which IC50 does the source give for `CC(C)(c1ccc(-c2noc(-c3ccc(=O)n(Cc4cccc(N5CC(O)C5)c4)c3)n2)cc1)C(F)(F)F` [Example 15, 1-[3-(3-Hydroxyazetidin-1-yl)benzyl]-5-{3-[4-(1,1,1-trifluoro-2-methylpropan-2-yl)phenyl]-1,2,4-oxadiazol-5-yl}pyridin-2(1H)-one] here?
A: 2 nM

Q: Which IC50 does the source give for `O=c1ccc(-c2nc(-c3ccc(C4(C(F)(F)F)CC4)cc3)no2)cn1Cc1cccc(N2CC(O)C2)c1` [Example 16, 1-[3-(3-Hydroxyazetidin-1-yl)benzyl]-5-(3-{4-[1-(trifluoromethyl)cyclopropyl]phenyl}-1,2,4-oxadiazol-5-yl)pyridin-2(1H)-one] here?
A: 5 nM

Q: With `COC(=O)c1cccc(Cn2cc(-c3nc(-c4ccc(C(C)(C)C(F)(F)F)cc4)no3)ccc2=O)c1` [Example 19, Methyl 3-{[2-oxo-5-{3-[4-(1,1,1-trifluoro-2-methylpropan-2-yl)phenyl]-1,2,4-oxadiazol-5-yl}pyridin-1(2H)-yl]methyl}benzoate] as the molecule, how does the IC50 read?
A: 30 nM

Q: With `CNC(=O)c1cccc(Cn2cc(-c3nc(-c4ccc(C(C)(C)C(F)(F)F)cc4)no3)ccc2=O)c1` [Example 21, N-Methyl-3-{[2-oxo-5-{3-[4-(1,1,1-trifluoro-2-methylpropan-2-yl)phenyl]-1,2,4-oxadiazol-5-yl}pyridin-1(2H)-yl]methyl}benzamide] as the molecule, how does the IC50 read?
A: 30 nM

Q: For `CN(C)C(=O)c1cccc(Cn2cc(-c3nc(-c4ccc(OC(F)(F)F)cc4)no3)ccc2=O)c1` [Example 22, N,N-Dimethyl-3-{[2-oxo-5-{3-[4-(trifluoromethoxy)phenyl]-1,2,4-oxadiazol-5-yl}pyridin-1(2H)-yl]methyl}benzamide], which IC50 is on record?
A: 20 nM

Q: How did the IC50 turn out when `CN(C)C(=O)c1cccc(Cn2cc(-c3nc(-c4ccc(C(C)(C)C(F)(F)F)cc4)no3)ccc2=O)c1` [Example 23, N,N-Dimethyl-3-{[2-oxo-5-{3-[4-(1,1,1-trifluoro-2-methylpropan-2-yl)phenyl]-1,2,4-oxadiazol-5-yl}pyridin-1(2H)-yl]methyl}benzamide] was run?
A: 15 nM

Q: With `CC(C)(c1ccc(-c2noc(-c3ccc(=O)n(Cc4cccc(C(=O)N5CCC5)c4)c3)n2)cc1)C(F)(F)F` [Example 25, 1-[3-(Azetidin-1-ylcarbonyl)benzyl]-5-{3-[4-(1,1,1-trifluoro-2-methylpropan-2-yl)phenyl]-1,2,4-oxadiazol-5-yl}pyridin-2(1H)-one] as the molecule, how does the IC50 read?
A: 5 nM

Q: Which IC50 does the source give for `CC(C)(c1ccc(-c2noc(-c3ccc(=O)n(Cc4cccc(C(=O)N5CC(O)C5)c4)c3)n2)cc1)C(F)(F)F` [Example 27, 1-{3-[(3-Hydroxyazetidin-1-yl)carbonyl]benzyl}-5-{3-[4-(1,1,1-trifluoro-2-methylpropan-2-yl)phenyl]-1,2,4-oxadiazol-5-yl}pyridin-2(1H)-one] here?
A: 1 nM

Q: For `O=C(c1cccc(Cn2cc(-c3nc(-c4ccc(OC(F)(F)F)cc4)no3)ccc2=O)c1)N1CCCC1` [Example 28, 1-[3-(Pyrrolidin-1-ylcarbonyl)benzyl]-5-{3-[4-(trifluoromethoxy)phenyl]-1,2,4-oxadiazol-5-yl}pyridin-2(1H)-one], which IC50 is on record?
A: 2 nM

Q: How did the IC50 turn out when `O=C(c1cccc(Cn2cc(-c3nc(-c4ccc(OC(F)(F)F)cc4)no3)ccc2=O)c1)N1CCCO1` [Example 30, 1-[3-(1,2-Oxazolidin-2-ylcarbonyl)benzyl]-5-{3-[4-(trifluoromethoxy)phenyl]-1,2,4-oxadiazol-5-yl}pyridin-2(1H)-one] was run?
A: 2 nM

Q: How did the IC50 turn out when `O=C(c1cccc(Cn2cc(-c3nc(-c4ccc(OC(F)(F)F)cc4)no3)ccc2=O)c1)N1CCC(O)CC1` [Example 32, 1-{3-[(4-Hydroxypiperidin-1-yl)carbonyl]benzyl}-5-{3-[4-(trifluoromethoxy)phenyl]-1,2,4-oxadiazol-5-yl}pyridin-2(1H)-one] was run?
A: 2 nM

Q: Which IC50 does the source give for `CC(C)(c1ccc(-c2noc(-c3ccc(=O)n(Cc4cccc(C(=O)N5CCC(O)CC5)c4)c3)n2)cc1)C(F)(F)F` [Example 33, 1-{3-[(4-Hydroxypiperidin-1-yl)carbonyl]benzyl}-5-{3-[4-(1,1,1-trifluoro-2-methylpropan-2-yl)phenyl]-1,2,4-oxadiazol-5-yl}pyridin-2(1H)-one] here?
A: 6 nM
